The NIST ThermoML archive (doi:10.1021/je0602519)

Assay: xn = mol fraction of the nth substance listed
Conditions: 101 kPa, Liquid; for speed of sound: Frequency=2 MHz, Linear variable-path acoustic interferometer; for mass density: Pycnometric method

CCCCCCCCCCO [decan-1-ol] + Cc1ccccc1
Conditions | mass density, 303.15 K [kg/m3] | mass density, 313.15 K [kg/m3] | speed of sound, 303.15 K [m/s] | speed of sound, 313.15 K [m/s] | viscosity, 303.15 K [mPa·s] | viscosity, 313.15 K [mPa·s]
x2 = 0 | 822.87 | 815.97 | 1366 | 1334 | 9.716 | 6.82
x2 = 0.0507 | 823.76 | 816.74 | 1361 | 1327 | 8.474 | 6.06
x2 = 0.1015 | 824.73 | 817.58 | 1355 | 1320 | 7.424 | 5.343
x2 = 0.1473 | 825.62 | 818.34 | 1349 | 1314 | 6.635 | 4.771
x2 = 0.2091 | 826.88 | 819.45 | 1340 | 1305 | 5.658 | 4.059
x2 = 0.2577 | 827.9 | 820.38 | 1333 | 1297 | 4.962 | 3.552
x2 = 0.3006 | 828.84 | 821.2 | 1327 | 1292 | 4.458 | 3.112
x2 = 0.3496 | 829.95 | 822.24 | 1318 | 1283 | 3.848 | 2.71
x2 = 0.4028 | 831.22 | 823.38 | 1311 | 1275 | 3.32 | 2.263
x2 = 0.4516 | 832.48 | 824.49 | 1303 | 1268 | 2.843 | 1.903
x2 = 0.4989 | 833.77 | 825.69 | 1295 | 1261 | 2.499 | 1.678
x2 = 0.5497 | 835.29 | 827.06 | 1290 | 1255 | 2.152 | 1.47
x2 = 0.6009 | 836.92 | 828.57 | 1285 | 1249 | 1.883 | 1.305
x2 = 0.6498 | 838.61 | 830.11 | 1280 | 1245 | 1.594 | 1.162
x2 = 0.7065 | 840.8 | 832.12 | 1275 | 1240 | 1.414 | 0.994
x2 = 0.7524 | 842.7 | 833.86 | 1274 | 1239 | 1.15 | 0.905
x2 = 0.8069 | 845.15 | 836.21 | 1273 | 1239 | 1.021 | 0.79
x2 = 0.8472 | 847.18 | 838.04 | 1274 | 1240 | 0.887 | 0.732
x2 = 0.9063 | 850.54 | 841.18 | 1278 | 1243 | 0.75 | 0.64
x2 = 0.9489 | 853.12 | 843.58 | 1282 | 1248 | 0.599 | 0.565

CCCCCCCO [heptan-1-ol] + Cc1ccccc1
Conditions | mass density, 303.15 K [kg/m3] | mass density, 313.15 K [kg/m3] | speed of sound, 303.15 K [m/s] | speed of sound, 313.15 K [m/s] | viscosity, 303.15 K [mPa·s] | viscosity, 313.15 K [mPa·s]
x2 = 0 | 814.89 | 807.68 | 1313 | 1279 | 5.048 | 3.712
x2 = 0.0525 | 816.52 | 809.17 | 1310 | 1274 | 4.404 | 3.362
x2 = 0.1014 | 818.06 | 810.59 | 1307 | 1271 | 3.859 | 3.074
x2 = 0.1518 | 819.67 | 812.07 | 1304 | 1267 | 3.4 | 2.77
x2 = 0.1859 | 820.78 | 813.13 | 1301 | 1263 | 3.154 | 2.55
x2 = 0.2489 | 822.84 | 815.02 | 1296 | 1258 | 2.645 | 2.226
x2 = 0.3011 | 824.61 | 816.69 | 1291 | 1251 | 2.314 | 1.986
x2 = 0.3504 | 826.34 | 818.24 | 1286 | 1247 | 2.042 | 1.77
x2 = 0.4006 | 828.07 | 819.87 | 1282 | 1242 | 1.796 | 1.583
x2 = 0.4494 | 829.88 | 821.57 | 1278 | 1237 | 1.594 | 1.436
x2 = 0.5003 | 831.83 | 823.35 | 1274 | 1233 | 1.399 | 1.271
x2 = 0.5486 | 833.72 | 825.14 | 1271 | 1230 | 1.25 | 1.144
x2 = 0.5903 | 835.44 | 826.72 | 1269 | 1227 | 1.113 | 1.069
x2 = 0.6493 | 837.95 | 829.09 | 1266 | 1226 | 0.982 | 0.965
x2 = 0.7011 | 840.28 | 831.32 | 1266 | 1225 | 0.888 | 0.84
x2 = 0.752 | 842.69 | 833.57 | 1267 | 1226 | 0.776 | 0.772
x2 = 0.8041 | 845.27 | 836.02 | 1268 | 1228 | 0.673 | 0.682
x2 = 0.8495 | 847.69 | 838.32 | 1272 | 1232 | 0.635 | 0.639
x2 = 0.9009 | 850.55 | 841.07 | 1276 | 1239 | 0.588 | 0.573
x2 = 0.9487 | 853.39 | 843.85 | 1282 | 1245 | 0.546 | 0.528

CCCCCCCCO [octan-1-ol] + Cc1ccccc1
Conditions | mass density, 303.15 K [kg/m3] | mass density, 313.15 K [kg/m3] | speed of sound, 303.15 K [m/s] | speed of sound, 313.15 K [m/s] | viscosity, 303.15 K [mPa·s] | viscosity, 313.15 K [mPa·s]
x2 = 0 | 818.38 | 811.05 | 1334 | 1304 | 6.433 | 4.603
x2 = 0.0495 | 819.62 | 812.14 | 1329 | 1300 | 5.63 | 4.13
x2 = 0.1104 | 821.19 | 813.56 | 1325 | 1293 | 4.775 | 3.645
x2 = 0.1513 | 822.25 | 814.55 | 1321 | 1287 | 4.281 | 3.261
x2 = 0.1999 | 823.55 | 815.73 | 1316 | 1282 | 3.788 | 2.832
x2 = 0.2517 | 824.98 | 817.04 | 1310 | 1274 | 3.28 | 2.545
x2 = 0.2997 | 826.34 | 818.29 | 1304 | 1268 | 2.952 | 2.218
x2 = 0.356 | 828.02 | 819.85 | 1297 | 1262 | 2.504 | 1.944
x2 = 0.3998 | 829.32 | 821.03 | 1291 | 1255 | 2.229 | 1.715
x2 = 0.4506 | 830.99 | 822.56 | 1286 | 1250 | 1.974 | 1.518
x2 = 0.5001 | 832.63 | 824.08 | 1281 | 1242 | 1.758 | 1.37
x2 = 0.5513 | 834.46 | 825.77 | 1276 | 1238 | 1.541 | 1.175
x2 = 0.6014 | 836.31 | 827.51 | 1272 | 1234 | 1.35 | 1.084
x2 = 0.6495 | 838.22 | 829.3 | 1270 | 1231 | 1.214 | 0.935
x2 = 0.6997 | 840.36 | 831.29 | 1268 | 1228 | 1.065 | 0.866
x2 = 0.7569 | 842.9 | 833.69 | 1267 | 1228 | 0.931 | 0.754
x2 = 0.8012 | 845.02 | 835.74 | 1268 | 1229 | 0.819 | 0.703
x2 = 0.8527 | 847.7 | 838.28 | 1269 | 1232 | 0.733 | 0.636
x2 = 0.9 | 850.32 | 840.85 | 1273 | 1236 | 0.646 | 0.558
x2 = 0.954 | 853.6 | 844 | 1280 | 1245 | 0.576 | 0.526
